Holding throughout (format): cell-based, human
One test deals with H1299 lung cancer cells. Put plainly: MTT cell viability assay, H1299. The procedure: (§1) To evaluate the impact of MMP12 inhibitors on lung cancer cell lines, an MTT assay was performed on A549, H1299, and H661 cells exposed to varying concentrations of inhibitors over 48, 72, and 96 h.
(§2) The lung cancer cell lines referenced as A549, H1299, and H661 were acquired from the American Type Culture Collection (ATCC, Manassas, VA, USA). Fibroblast cells of dermal origin were used as a model for normal human tissue, which were also purchased from ATCC. A549, H1299, and H661 cells were maintained in the RPMI culture medium, while fibroblast cells were maintained in the DMEM high glucose culture medium. Both RPMI and DMEM culture media were supplemented with 100 U/mL penicillin, 0.1 mg/mL streptomycin to prevent bacterial growth, 10% FBS to promote cell growth, and 2 mM L-glutamine as an energy source.
(§3) The 3-(4,5-dimethylthiazol-2-yl)-2,5-diphenyltetrazolium bromide (MTT) assay was employed to evaluate cell proliferation as previously noted. All experiments were performed in triplicate wells and were repeated at least twice independently. The percentage of the relative cell viability of treated cells versus the untreated cells (negative controls) was calculated using the following formula in Equation (1) (cell viability calculation):(1) Cell viability%=optical density of treated cells/optical density of untreated cells×100

A further test has as its system H661 lung cancer cells. The test can be described thus: MTT cell viability assay, H661. Here is the method: as §1, §2, §3
On the technique in general: Tetrazolium assays rely on reduction of a dye to a coloured formazan, in cell work by metabolically active cells.

For the next test, the system named is H1299 cells. Put plainly: Soft agar colony formation assay (anchorage-independent growth). As to conditions: for Colony count / Colony average size (px): H1299 soft agar; for Colony count: untreated 920; for Colony average size (px): untreated 746758. The procedure:
Figures S12–S16 show a selection of images captured on day 15 at different magnifications: 4× and 20×.
The anchorage-independent colony formation assay was conducted using a previously described method with minor modifications. […] After 14 days of incubation, the colonies were imaged using the EVOS XL Core microscopeThermo Fisher Scientific, Waltham, MA, USA. and quantified.

Where [1] appears, read: highest listed concentration (IC50).
Setting [2] is: lowest listed concentration (¼ IC50).
The mark [3] stands for this setting: middle listed concentration (½ IC50).

“And” between values parts separate entries of the source, which are not always exact repeats. Equal values may be shown once.

Take `O=C(/C=C/c1ccc(Cl)cc1)Nc1ccc(C(=O)c2ccccc2)cc1` [Compound C1]: the IC50 (usually the concentration that gives 50% inhibition) in the test with H1299 lung cancer cells (H1299, 72 h) is 91 µM and 91.7 µM; in the test on H1299 lung cancer cells (Homo sapiens, NCI-H1299, 48 h, H1299, 48 h) it was 359 µM; in the test with H1299 lung cancer cells (Homo sapiens, NCI-H1299, 72 h, H1299, 72 h) it was 91.7 µM; in the test on H1299 lung cancer cells (Homo sapiens, NCI-H1299, 96 h, H1299, 96 h), 99.7 µM; in the test on H661 lung cancer cells (H661, 72 h), 34 µM; in the test on H661 lung cancer cells (Homo sapiens, NCI-H661, 48 h, H661, 48 h), 60.4 µM. Besides, the IC50 in the test on H661 lung cancer cells (Homo sapiens, NCI-H661, 72 h, H661, 72 h) is 33.9 µM; in the test with H661 lung cancer cells (Homo sapiens, NCI-H661, 96 h, H661, 96 h), 129 µM. The “formation of cell colonies (number and size), in words” value with H1299 cells (H1299, IC50, ½ IC50 or ¼ IC50, 72 h, vs untreated control) is given as “inhibited the formation of cell colonies”. Moreover, the Colony count is 292 in the test on H1299 cells (setting [1]), 520 in the test with H1299 cells (setting [2]) and 408 in the test with H1299 cells (setting [3]). Also, the “Colony average size (px)” value in the test with H1299 cells (setting [1]) is listed as 51655 px; in the test with H1299 cells (setting [2]) it was 262500 px; with H1299 cells (setting [3]), 130041 px.

The record behind these values is publication PMC12732581, “Molecular and System-Level Characterization of MMP12 Suppression in Lung Cancer: A Combined Bioinformatics and Molecular Approach” (International Journal of Molecular Sciences, 2025).
